Data taken from US11007169B2, “Cis-gnetin H and trans-gnetin H as therapeutic agents” (MIDDLE TENNESSEE STATE UNIVERSITY, priority 2014, dated 2021).
Values joined by “and” are separate entries in the source; they are usually repeats but may differ in a detail not shown here. Equal entries are not always repeated.

Key:
[1] = test system: IL-1β in LPS-stimulated THP-1 cells; assay: Cytokine response by ELISA, IL-1β; assay type: cell-based, human; conditions: Homo sapiens, THP-1; 1 μM, 20 ng/ml LPS 4 h
Description: (§1) THP-1 cells were maintained in RPMI 1640 medium supplemented with 10% complement-inactivated FBS and 1% penicillin/streptomycin (complete culture medium) at 37° C. with 5% CO2 supplemented. Cell concentrations were adjusted to desired concentrations for each experiment by centrifugation at 500×g for 5 min and resuspended in complete culture medium with 100 nM of PMA. Cell concentration was adjusted to 5×10^5 cells/ml for all assays and 2.5×10^5 cells/ml were used for NF-κB nuclear translocation assay. Cells were seeded onto 96-, 24-, or 12-well plates and incubated for 48 to 72 h to allow for differentiation. Cells were washed with serum-free RPMI 1640 medium before each experiment to remove the undifferentiated cells.
(§2) Differentiated THP-1 cells were pretreated with various concentrations of cis-gnetin H, trans-gnetin H, or 1 μM of dexamethasone for 1 h and stimulated with 20 ng/ml of LPS for 4 h. Dexamethasone is a synthetic glucocorticoid that suppresses cytokine response and was used as a positive control (Abraham et al., 2006, J. Exp. Med., 203:1883-9; Steer et al., J. Biol. Chem., 2000, 275(24):18432-40). Supernatants were collected for human cytokine ELISAs and the manufacturer's protocol was followed to assess the cytokine response. Cells remaining after the supernatant collection were tested for relative viability by Alamar Blue cytotoxicity assay as described earlier.

[2] = test system: TNF-α in LPS-stimulated THP-1 cells; assay: Cytokine response by ELISA, TNF-α; assay type: cell-based, human; conditions: Homo sapiens, THP-1; 1 μM, 20 ng/ml LPS 4 h
Description: as §1, §2

[3] = test system: IL-8 in LPS-stimulated THP-1 cells; assay: Cytokine response by ELISA, IL-8; assay type: cell-based, human; conditions: Homo sapiens, THP-1; 1 μM, 20 ng/ml LPS 4 h
Description: as §1, §2

[4] = test system: A549 lung cancer cell line; conditions: literature values; read-out: IC50 against the A549 lung cancer cell line; cited from earlier work
[5] = test system: p65 (RelA) nuclear translocation in THP-1 cells; assay: Indirect immunofluorescence for NF-κB nuclear translocation; assay type: cell-based, human; conditions: pretreated 1 h, LPS 30 min; Bay 11-7082 10 μM
Description: as §1
Differentiated THP-1 cells were pretreated with 50 μM of cis-gnetin H, trans-gnetin H, or 10 μM of Bay 11-7082 for 1 h and stimulated with 1 μg/ml of LPS for 30 min. Bay 11-7082 is a compound that inhibits IKK α/β and IκB α phosphorylation and was used as a positive control (Juliana et al., 2010, J. Biol. Chem., 285:9792-802). Treated cells were fixed, permeabilized, blocked, and stained with NF-κB, p65 primary antibody, Dylight 488 conjugated secondary antibody, and Hoechst 33342 dye, sequentially. The Hoechst and DyLight fluorophores detect changes in nuclear morphology (blue fluorescence) and NF-κB distribution (green fluorescence) respectively. Nuclear Translocation Bioapplication software on the Arrayscan VTI reader was used for image acquisition and analysis. For each well, at least 400 cells were automatically acquired and analyzed. The translocation index was calculated by measuring the average intensity difference of NF-icB between the identified cytoplasmic region and nuclear region.

Question: What does the source list for `C[C@@H]1C[C@H]2[C@@H]3CCC4=CC(=O)C=C[C@]4(C)[C@@]3(F)[C@@H](O)C[C@]2(C)[C@@]1(O)C(=O)CO` [Dexamethasone, dexamethasone, reference compound]?
Answer: inhibition at 1 µM [1]: 56%; inhibition at 1 µM [2]: 58%; inhibition at 1 µM [3]: 63%

Question: Which IC50 [4] does the source give for `Oc1ccc(C=Cc2cc(O)cc(O)c2)cc1` [Resveratrol, 3,5,4′-trihydroxystilbene] here?
Answer: 8.9 µM and > 10 µM

Question: With `Cc1ccc(S(=O)(=O)C=CC#N)cc1` [Bay 11-7082, 3-(4-methylphenylsulfonyl)-2-propenenitrile, reference compound] as the compound, how does the p65 nuclear translocation [5] read?
Answer: inhibited the p65 nuclear translocation
